Source: PubChem BioAssay AID1963846 (Molecular Pharmacology Branch, DTP, NCI, 2024)
pIC50: −log10 of the molar value.

Tested on: 454973-116-R2-J3-PDC complex spheroid viability
Assay: Anticancer human tumor 454973-116-R2-J3-PDC patient-derived pancreatic carcinoma cell line growth inhibition [POLQ]
Details: for pIC50: curve of first compound; for viability, T/C: stronger effect = lower value; active = viability on the fitted dose curve at most 10% of control; inactive = the rest
In short: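 Three-cell-type spheroids modelling solid tumor plus stroma served as the readout system; POL inhibitors were tested individually and in combination, concentration ranges set by clinical Cmax where known.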

[1] = second compound 0.0316 µM, first compound 0.0316 µM
[2] = second compound 0.0316 µM, first compound 0.1 µM
[3] = second compound 0.0316 µM, first compound 0.316 µM
[4] = second compound 0.0316 µM, first compound 1 µM
[5] = second compound 0.0316 µM, first compound 3.16 µM
[6] = second compound 0.0316 µM, first compound 10 µM
[7] = second compound 0.1 µM, first compound 0.0316 µM
[8] = second compound 0.1 µM, first compound 0.1 µM
[9] = second compound 0.1 µM, first compound 0.316 µM
[10] = second compound 0.1 µM, first compound 1 µM
[11] = second compound 0.1 µM, first compound 3.16 µM
[12] = second compound 0.1 µM, first compound 10 µM
[13] = second compound 0.316 µM, first compound 0.0316 µM
[14] = second compound 0.316 µM, first compound 0.1 µM
[15] = second compound 0.316 µM, first compound 0.316 µM
[16] = second compound 0.316 µM, first compound 1 µM
[17] = second compound 0.316 µM, first compound 3.16 µM
[18] = second compound 0.316 µM, first compound 10 µM
[19] = second compound 1 µM, first compound 0.0316 µM
[20] = second compound 1 µM, first compound 0.1 µM
[21] = second compound 1 µM, first compound 0.316 µM
[22] = second compound 1 µM, first compound 1 µM
[23] = second compound 1 µM, first compound 3.16 µM
[24] = second compound 1 µM, first compound 10 µM
[25] = second compound 3.16 µM, first compound 0.0316 µM
[26] = second compound 3.16 µM, first compound 0.1 µM
[27] = second compound 3.16 µM, first compound 0.316 µM
[28] = second compound 3.16 µM, first compound 1 µM
[29] = second compound 3.16 µM, first compound 3.16 µM
[30] = second compound 3.16 µM, first compound 10 µM
[31] = second compound 10 µM, first compound 0.0316 µM
[32] = second compound 10 µM, first compound 0.1 µM
[33] = second compound 10 µM, first compound 0.316 µM
[34] = second compound 10 µM, first compound 1 µM
[35] = second compound 10 µM, first compound 3.16 µM
[36] = second compound 10 µM, first compound 10 µM
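Note: spheroids exposed to drugs for seven days before measurement.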
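Throughout, for viability, T/C: percent viability relative to DMSO vehicle control wells taken as 100%.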

Nc1ccn(C2OC(CO)C(O)C2(F)F)c(=O)n1 (centres undefined) + Nc1ccc(C#CCN(C(=O)Cc2ncc(C(F)(F)F)cc2C(F)(F)F)c2ccc(F)cc2)nn1
> 7.50: pIC50 (second compound 0.0316 µM) | pIC50 (second compound 0.1 µM) | pIC50 (second compound 0.316 µM) | pIC50 (second compound 1 µM) | pIC50 (second compound 3.16 µM) | pIC50 (second compound 10 µM)
active: viability, T/C [1] 6.99% | viability, T/C [2] 8.25% | viability, T/C [3] 7.01% | viability, T/C [4] 6.38% | viability, T/C [5] 8.02% | viability, T/C [6] 5.63% | viability, T/C [7] 8.85% | viability, T/C [8] 7.54% | viability, T/C [9] 7.93% | viability, T/C [10] 6.21% | viability, T/C [11] 7.06% | viability, T/C [12] 5.26% | viability, T/C [13] 7.49% | viability, T/C [14] 6.66% | viability, T/C [15] 6.67% | viability, T/C [16] 7.27% | viability, T/C [17] 6.52% | viability, T/C [18] 5.87% | viability, T/C [19] 9.44% | viability, T/C [20] 6.21% | viability, T/C [21] 6.52% | viability, T/C [22] 6.07% | viability, T/C [23] 6.68% | viability, T/C [24] 5.65% | viability, T/C [25] 9.42% | viability, T/C [26] 6.2% | viability, T/C [27] 6.31% | viability, T/C [28] 6.8% | viability, T/C [29] 7.81% | viability, T/C [30] 5.38% | viability, T/C [31] 7.43% | viability, T/C [32] 5.82% | viability, T/C [33] 5.66% | viability, T/C [34] 6.28% | viability, T/C [35] 7.1% | viability, T/C [36] 4.05%

CC1COCCN1c1cc(C2(S(C)(=N)=O)CC2)nc(-c2ccnc3[nH]ccc23)n1 (centres undefined) + COC1C(OC(N)=O)C(O)C(Oc2ccc3c(O)c(NC(=O)c4ccc(O)c(CC=C(C)C)c4)c(=O)oc3c2C)OC1(C)C
inactive: viability, T/C [1] 102% | viability, T/C [2] 104% | viability, T/C [3] 105% | viability, T/C [4] 102% | viability, T/C [5] 77.1% | viability, T/C [6] 28.1% | viability, T/C [7] 107% | viability, T/C [8] 114% | viability, T/C [9] 101% | viability, T/C [10] 101% | viability, T/C [11] 71.8% | viability, T/C [12] 32.8% | viability, T/C [13] 103% | viability, T/C [14] 110% | viability, T/C [15] 116% | viability, T/C [16] 105% | viability, T/C [17] 81.1% | viability, T/C [18] 38.3% | viability, T/C [19] 127% | viability, T/C [20] 104% | viability, T/C [21] 109% | viability, T/C [22] 109% | viability, T/C [23] 68.2% | viability, T/C [24] 37% | viability, T/C [25] 118% | viability, T/C [26] 99.9% | viability, T/C [27] 101% | viability, T/C [28] 97.2% | viability, T/C [29] 75.8% | viability, T/C [30] 30.9% | viability, T/C [31] 114% | viability, T/C [32] 97% | viability, T/C [33] 104% | viability, T/C [34] 93.9% | viability, T/C [35] 74% | viability, T/C [36] 31.2%
5.14: pIC50 (second compound 0.316 µM)
5.21: pIC50 (second compound 1 µM) | pIC50 (second compound 3.16 µM)
5.22: pIC50 (second compound 0.0316 µM) | pIC50 (second compound 0.1 µM) | pIC50 (second compound 10 µM)
